Results as given in the supplement of paper PMC10307832.

Legend:
Assay in all cases: relative viability (nuclei count vs DMSO), 5 days (fraction); higher = more cells survive
[1] = compound: Nc1ccn([C@@H]2O[C@H](CO)[C@@H](O)C2(F)F)c(=O)n1 [Gemcitabine] + CC(=O)c1c(C)c2cnc(Nc3ccc(N4CCNCC4)cn3)nc2n(C2CCCC2)c1=O [Palbociclib] (partner 0.5 µM)
Outline: (§1)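 After 5 days of treatment, lung cancer cells in 1536-well plates were fixed and stained in a single step (final 0.05% Triton X-100, 1% formaldehyde, 1 ug/ml Hoechst) and their nuclei counted on 4× images. Treatment had been applied by pin tool the day after seeding as one drug alone or as a fixed anchor-drug dose with five library-drug doses (not always all listed) in √10 steps. Relative viability is the nuclei count of treated wells divided by that of vehicle wells, and values are medians of duplicate plates.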

[2] = compound: Nc1ccn([C@@H]2O[C@H](CO)[C@@H](O)C2(F)F)c(=O)n1 [Gemcitabine] + Cc1nc(NC(=O)N2CCC[C@H]2C(N)=O)sc1-c1ccnc(C(C)(C)C(F)(F)F)c1 [Alpelisib] (partner 2 µM)
Outline: as §1

[3] = compound: Nc1ccn([C@@H]2O[C@H](CO)[C@@H](O)C2(F)F)c(=O)n1 [Gemcitabine] + Nc1nc2[nH]cc(CCc3ccc(C(=O)N[C@@H](CCC(=O)O)C(=O)O)cc3)c2c(=O)[nH]1 [Pemetrexed] (partner 0.2 µM)
Outline: as §1

[4] = compound: Nc1ccn([C@@H]2O[C@H](CO)[C@@H](O)C2(F)F)c(=O)n1 [Gemcitabine] + O=C(c1cc(Cc2n[nH]c(=O)c3ccccc23)ccc1F)N1CCN(C(=O)C2CC2)CC1 [Olaparib] (partner 8 µM)
Outline: as §1

Cell Line | relative viability ([1]; first compound 0.001 µM) | relative viability ([1]; first compound 0.003162 µM) | relative viability ([1]; first compound 0.01 µM) | relative viability ([1]; first compound 0.03162 µM) | relative viability ([1]; first compound 0.1 µM) | relative viability ([2]; first compound 0.001 µM) | relative viability ([2]; first compound 0.003162 µM) | relative viability ([2]; first compound 0.01 µM) | relative viability ([2]; first compound 0.03162 µM) | relative viability ([2]; first compound 0.1 µM) | relative viability ([3]; first compound 0.001 µM) | relative viability ([3]; first compound 0.003162 µM) | relative viability ([3]; first compound 0.01 µM) | relative viability ([3]; first compound 0.03162 µM) | relative viability ([3]; first compound 0.1 µM) | relative viability ([4]; first compound 0.001 µM) | relative viability ([4]; first compound 0.003162 µM) | relative viability ([4]; first compound 0.01 µM) | relative viability ([4]; first compound 0.03162 µM) | relative viability ([4]; first compound 0.1 µM)
RERF-LC-KJ | 1.06 | 1.02 | 0.991 | 0.356 | 0.255 | 0.853 | 0.849 | 0.856 | 0.496 | 0.228 | 0.5 | 0.485 | 0.459 | 0.357 | 0.263 | 1 | 0.87 | 0.804 | 0.389 | 0.293
SK-LU-1 | 0.386 | 0.312 | 0.283 | 0.184 | 0.221 | 0.745 | 0.337 | 0.246 | 0.224 | 0.192 | 1.01 | 0.434 | 0.252 | 0.2 | 0.237 | 0.431 | 0.188 | 0.181 | 0.183 | 0.168
SK-MES-1 | 0.257 | 0.274 | 0.229 | 0.223 | 0.225 | 0.658 | 0.454 | 0.21 | 0.189 | 0.183 | 0.804 | 0.271 | 0.2 | 0.201 | 0.173 | 0.587 | 0.22 | 0.165 | 0.199 | 0.161
SW 1573 | 0.432 | 0.308 | 0.131 | 0.0954 | 0.0788 | 0.749 | 0.592 | 0.295 | 0.0967 | 0.0846 | 0.876 | 0.732 | 0.0969 | 0.0574 | 0.0459 | 0.413 | 0.295 | 0.0949 | 0.102 | 0.0546
UMC-11 | 0.295 | 0.36 | 0.287 | 0.284 | 0.233 | 1.15 | 0.931 | 0.885 | 0.792 | 0.239 | 0.814 | 0.769 | 0.747 | 0.676 | 0.403 | 0.41 | 0.496 | 0.356 | 0.38 | 0.247
